{"source": "patent US9453053B2", "about": "“Short peptides for enhancing muscle function” (UNIVERSITAT HEIDELBERG, priority 2010, dated 2016)", "key": {"[1]": {"tested_on": "isolated rat ventricular cardiomyocytes", "format": "cell-based", "settings": "for effect on calcium transient amplitudes: FIG. 25, field-stimulated (1 Hz) isolated rat ventricular cardiomyocytes; for increase in the calcium transient amplitude over control cells, functional equivalence compared to S100A1ct6/11: FIG. 26, 2 Hz, peptides added 30 min before assessment"}, "RyR2": {"molecular_target": "T1, RyR2 (Oryctolagus cuniculus, UniProt P30957)", "T1 construct": "Adult ventricular rabbit cardiomyocytes were isolated from four different animals; endogenous in cells; host or cells: adult ventricular rabbit cardiomyocytes, permeabilized with beta-escin", "T1 sequence (P30957 whole entry)": "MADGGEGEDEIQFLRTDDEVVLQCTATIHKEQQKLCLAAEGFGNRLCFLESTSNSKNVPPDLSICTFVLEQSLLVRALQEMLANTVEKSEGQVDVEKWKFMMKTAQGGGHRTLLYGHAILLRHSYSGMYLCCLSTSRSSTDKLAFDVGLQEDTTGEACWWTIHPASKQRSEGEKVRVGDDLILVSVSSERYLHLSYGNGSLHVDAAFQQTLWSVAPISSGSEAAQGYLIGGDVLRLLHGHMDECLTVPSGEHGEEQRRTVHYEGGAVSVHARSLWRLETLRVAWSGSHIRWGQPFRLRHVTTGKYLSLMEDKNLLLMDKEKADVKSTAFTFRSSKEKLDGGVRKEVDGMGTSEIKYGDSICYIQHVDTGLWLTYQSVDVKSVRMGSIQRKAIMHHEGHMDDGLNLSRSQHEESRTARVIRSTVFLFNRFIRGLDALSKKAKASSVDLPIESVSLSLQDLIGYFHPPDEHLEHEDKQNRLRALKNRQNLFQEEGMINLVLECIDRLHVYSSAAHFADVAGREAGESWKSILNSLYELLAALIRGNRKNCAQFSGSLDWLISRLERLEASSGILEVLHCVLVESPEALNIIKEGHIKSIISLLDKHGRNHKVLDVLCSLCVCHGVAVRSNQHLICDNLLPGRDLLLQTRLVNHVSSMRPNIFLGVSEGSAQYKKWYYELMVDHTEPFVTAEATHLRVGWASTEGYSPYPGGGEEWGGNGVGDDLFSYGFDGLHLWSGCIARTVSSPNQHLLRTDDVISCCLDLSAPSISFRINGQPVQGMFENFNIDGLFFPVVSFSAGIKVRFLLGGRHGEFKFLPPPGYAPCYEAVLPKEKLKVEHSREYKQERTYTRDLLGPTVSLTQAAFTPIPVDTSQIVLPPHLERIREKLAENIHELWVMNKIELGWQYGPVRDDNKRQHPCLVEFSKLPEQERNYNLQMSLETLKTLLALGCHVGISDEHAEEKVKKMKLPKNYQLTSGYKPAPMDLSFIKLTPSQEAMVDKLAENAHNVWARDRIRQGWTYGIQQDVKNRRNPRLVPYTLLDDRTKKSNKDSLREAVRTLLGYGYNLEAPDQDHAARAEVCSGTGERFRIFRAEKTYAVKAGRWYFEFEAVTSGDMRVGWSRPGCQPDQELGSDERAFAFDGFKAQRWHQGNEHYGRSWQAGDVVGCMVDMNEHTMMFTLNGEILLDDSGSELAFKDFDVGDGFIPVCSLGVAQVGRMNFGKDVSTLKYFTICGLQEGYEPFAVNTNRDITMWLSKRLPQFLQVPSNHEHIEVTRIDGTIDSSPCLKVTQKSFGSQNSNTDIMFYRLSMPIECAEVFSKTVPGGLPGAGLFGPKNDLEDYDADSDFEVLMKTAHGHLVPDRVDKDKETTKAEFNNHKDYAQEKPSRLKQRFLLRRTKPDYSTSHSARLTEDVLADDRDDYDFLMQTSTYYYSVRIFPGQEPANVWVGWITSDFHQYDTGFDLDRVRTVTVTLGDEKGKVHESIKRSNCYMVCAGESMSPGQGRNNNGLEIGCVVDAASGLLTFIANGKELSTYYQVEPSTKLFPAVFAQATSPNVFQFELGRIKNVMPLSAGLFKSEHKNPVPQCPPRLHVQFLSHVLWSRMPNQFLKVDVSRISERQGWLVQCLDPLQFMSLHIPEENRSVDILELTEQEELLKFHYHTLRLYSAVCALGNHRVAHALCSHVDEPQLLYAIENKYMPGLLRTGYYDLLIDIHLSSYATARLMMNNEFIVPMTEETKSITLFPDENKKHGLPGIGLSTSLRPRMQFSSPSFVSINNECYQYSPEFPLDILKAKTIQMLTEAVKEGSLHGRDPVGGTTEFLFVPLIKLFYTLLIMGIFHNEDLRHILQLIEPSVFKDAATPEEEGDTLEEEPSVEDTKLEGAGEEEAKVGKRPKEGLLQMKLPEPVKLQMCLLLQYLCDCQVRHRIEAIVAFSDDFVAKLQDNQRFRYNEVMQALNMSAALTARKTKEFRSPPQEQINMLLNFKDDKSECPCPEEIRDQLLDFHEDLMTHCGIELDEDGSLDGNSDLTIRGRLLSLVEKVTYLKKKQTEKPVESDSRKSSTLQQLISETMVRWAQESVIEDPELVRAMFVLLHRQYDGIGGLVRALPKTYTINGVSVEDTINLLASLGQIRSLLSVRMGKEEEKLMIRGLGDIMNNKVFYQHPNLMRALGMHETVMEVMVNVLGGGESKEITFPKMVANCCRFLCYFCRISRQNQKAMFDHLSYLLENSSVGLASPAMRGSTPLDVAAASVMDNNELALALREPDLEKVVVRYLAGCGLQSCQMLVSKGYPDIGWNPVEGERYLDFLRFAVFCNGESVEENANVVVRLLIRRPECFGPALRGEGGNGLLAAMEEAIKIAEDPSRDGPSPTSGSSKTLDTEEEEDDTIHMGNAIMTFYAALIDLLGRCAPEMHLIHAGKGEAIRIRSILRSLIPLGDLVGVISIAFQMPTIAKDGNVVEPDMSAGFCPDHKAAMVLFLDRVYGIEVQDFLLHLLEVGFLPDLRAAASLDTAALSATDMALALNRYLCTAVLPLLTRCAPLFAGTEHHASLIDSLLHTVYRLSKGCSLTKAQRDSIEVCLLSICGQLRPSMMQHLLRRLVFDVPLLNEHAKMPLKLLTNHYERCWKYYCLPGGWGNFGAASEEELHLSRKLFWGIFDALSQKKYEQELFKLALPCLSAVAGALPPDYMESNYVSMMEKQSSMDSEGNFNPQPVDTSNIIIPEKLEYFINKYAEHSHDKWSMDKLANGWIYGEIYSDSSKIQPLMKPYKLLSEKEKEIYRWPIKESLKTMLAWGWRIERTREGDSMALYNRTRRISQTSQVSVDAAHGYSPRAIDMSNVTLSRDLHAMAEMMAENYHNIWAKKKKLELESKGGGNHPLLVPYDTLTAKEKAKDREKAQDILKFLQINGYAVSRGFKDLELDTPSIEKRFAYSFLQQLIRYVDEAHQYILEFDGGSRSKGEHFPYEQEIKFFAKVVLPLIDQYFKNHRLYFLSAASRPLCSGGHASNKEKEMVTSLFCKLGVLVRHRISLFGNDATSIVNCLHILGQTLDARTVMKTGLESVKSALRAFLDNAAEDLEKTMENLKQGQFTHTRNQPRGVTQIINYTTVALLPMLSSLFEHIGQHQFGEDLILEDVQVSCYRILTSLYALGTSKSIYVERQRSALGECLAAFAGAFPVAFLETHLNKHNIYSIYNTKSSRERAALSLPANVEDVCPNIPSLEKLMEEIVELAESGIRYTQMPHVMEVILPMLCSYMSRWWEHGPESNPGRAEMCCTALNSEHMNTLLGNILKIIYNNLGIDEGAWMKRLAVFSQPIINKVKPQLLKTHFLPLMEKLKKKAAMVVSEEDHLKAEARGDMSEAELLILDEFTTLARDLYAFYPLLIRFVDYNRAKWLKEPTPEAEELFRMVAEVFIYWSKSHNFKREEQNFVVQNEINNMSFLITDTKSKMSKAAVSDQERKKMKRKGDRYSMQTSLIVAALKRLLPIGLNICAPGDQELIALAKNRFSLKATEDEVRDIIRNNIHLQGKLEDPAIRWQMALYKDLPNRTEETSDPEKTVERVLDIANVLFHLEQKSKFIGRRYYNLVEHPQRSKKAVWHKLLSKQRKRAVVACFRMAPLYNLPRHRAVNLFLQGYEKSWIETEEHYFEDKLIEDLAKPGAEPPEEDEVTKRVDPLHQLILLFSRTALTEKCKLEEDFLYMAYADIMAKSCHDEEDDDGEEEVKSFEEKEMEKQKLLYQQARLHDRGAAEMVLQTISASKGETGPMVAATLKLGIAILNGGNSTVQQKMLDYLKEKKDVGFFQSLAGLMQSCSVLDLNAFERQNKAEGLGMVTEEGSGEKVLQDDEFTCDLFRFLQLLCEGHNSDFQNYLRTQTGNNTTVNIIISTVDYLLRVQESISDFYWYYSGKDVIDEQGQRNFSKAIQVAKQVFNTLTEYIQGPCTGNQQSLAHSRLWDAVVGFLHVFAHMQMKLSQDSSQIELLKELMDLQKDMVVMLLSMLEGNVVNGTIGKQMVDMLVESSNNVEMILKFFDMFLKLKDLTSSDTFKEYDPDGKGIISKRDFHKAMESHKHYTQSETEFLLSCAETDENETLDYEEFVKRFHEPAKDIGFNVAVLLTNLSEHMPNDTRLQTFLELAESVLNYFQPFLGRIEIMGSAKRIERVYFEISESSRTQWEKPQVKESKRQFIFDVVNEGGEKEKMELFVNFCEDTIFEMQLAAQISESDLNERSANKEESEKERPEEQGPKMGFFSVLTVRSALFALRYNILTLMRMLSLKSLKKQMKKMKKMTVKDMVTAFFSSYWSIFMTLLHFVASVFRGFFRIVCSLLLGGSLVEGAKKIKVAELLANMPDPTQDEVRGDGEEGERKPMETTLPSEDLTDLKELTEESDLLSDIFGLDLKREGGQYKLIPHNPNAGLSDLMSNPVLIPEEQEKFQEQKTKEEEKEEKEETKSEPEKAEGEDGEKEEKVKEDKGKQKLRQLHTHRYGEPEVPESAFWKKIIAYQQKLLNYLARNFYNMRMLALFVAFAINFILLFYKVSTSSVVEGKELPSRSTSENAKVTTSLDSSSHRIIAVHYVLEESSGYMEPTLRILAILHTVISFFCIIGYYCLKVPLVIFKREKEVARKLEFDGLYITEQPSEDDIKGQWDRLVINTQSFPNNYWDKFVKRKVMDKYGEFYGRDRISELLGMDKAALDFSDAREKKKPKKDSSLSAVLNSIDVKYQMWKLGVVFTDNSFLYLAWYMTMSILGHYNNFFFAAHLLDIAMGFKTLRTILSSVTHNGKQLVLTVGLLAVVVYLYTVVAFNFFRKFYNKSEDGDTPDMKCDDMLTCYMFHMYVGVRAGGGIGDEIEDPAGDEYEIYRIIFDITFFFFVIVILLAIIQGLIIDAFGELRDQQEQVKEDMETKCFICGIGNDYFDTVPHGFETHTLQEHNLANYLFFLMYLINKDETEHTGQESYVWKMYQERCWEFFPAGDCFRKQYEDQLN", "assay": "Ca2+-spark frequency in permeabilized cardiomyocytes", "format": "cell-based, rabbit", "procedure": "Adult ventricular rabbit cardiomyocytes were isolated from four different animals as previously described (Loughrey C. M. et al., 2004, J. Physiol. 556:919-934) and permeabilized using β-escin (0.1 mg/ml). The permeabilized cells were incubated for 1 minute with rhodamine-labeled human S100A1 protein (0.1 μM) or FITC-labeled S100A1 C-terminal 20-mer peptide (0.1 μM) fused to a hydrophilic element (i.e. amino acids 75 to 94 of human S100A1 fused to the hydrophilic element D-K-D-D-P-P (SEQ ID NO: 17)). Cells were monitored using a Bio-Rad 2000 laser scanning confocal microscope (LSCM). A striated staining pattern can be observed that resembles the ryanodine staining pattern (FIG. 4).\nFurthermore, Ca^2+-spark frequency has been assessed in the permeabilized cells treated with S100A1 protein or the S100A1 C-terminal 20-mer peptide fused to a hydrophilic element and it was shown that both, the full-length protein as well as the C-terminal fragment, decrease calcium spark frequency in permeabilized cardiomyocytes (FIGS. 5 and 6). […] Fluo-3 free acid (10 μM) present in the perfusing solution was excited at 488 nm (Kr-laser) and measured at >515 nm applying epifluorescence optics of an inverted microscope with a ×60-1.2 NA water-immersion objective lens. Fluorescence was acquired in line scan mode at 2 ms line^−1; pixel dimension was 0.3 μm (512 pixels scan^−1; zoom=1.4). […]"}, "[2]": {"tested_on": "permeabilized EDL murine skeletal muscle fibers", "assay": "Isometric twitch force in permeabilized skeletal muscle fibers", "format": "cell-based, mouse", "procedure": "Muscle Fiber Preparation and Experimental Solutions. All of the animals were handled according to the guidelines of the animal care committee of the University of Heidelberg. Male BALB/c mice (3-6-months-old) were sacrificed by an overdose of carbon dioxide, and muscle fiber preparation was carried out as previously described (Fink R. H. and Stephenson D. G., 1987, Pflugers Arch. Eur. J. Physiol. 409:374-380; Makabe M. et al., 1996, Pflugers Arch. Eur. J. Physiol. 432: 717-726). Either EDL (M. ext. dig. longum) or Soleus was isolated, and a small fiber bundle containing two to four single fibers (between 80 and 150 μm in diameter and 3-4-mm-long) was dissected in paraffin oil. […] The free ion concentrations were calculated with the computer program REACT (version 2.0) from G. L. Smith (Glasgow, Scotland). […]\nIt was shown that both, the full-length S100A1 protein as well as the C-terminal fragment, has a potency to enhance isometric twitch force in permeabilized murine skeletal muscle fibers (FIG. 7). […] Maximum force was measured in the high activating solution at pCa 4.28 and 5 mM caffeine. […] Several control transients were recorded before the fiber was exposed to the S100A1 protein or the S100A1 peptide mixture (N/H/C) or the C-terminal 20-mer alone, and the experiment was repeated as outlined above. […]"}, "[3]": {"tested_on": "adult intact cardiomyocytes or skeletal muscle fibers", "assay": "Calcium homeostasis in adult intact cardiomyocytes or skeletal muscle fibers", "format": "cell-based", "settings": "adult intact (non-permeabilized) cardiomyocytes or skeletal muscle fibers"}}, "note": "Entries after “also recorded” stand apart in the source; their conditions may differ. Ends that are not written are not given here."}
{"substance": "D-K-D-D-P-P (DKDDPP; hydrophilic motif) [hydrophobic element, 6-mer hydrophilic motif tested alone as control, reference compound]", "values": [{"measurement": "effect on calcium transient amplitudes", "setting": "[1]", "result": "do not exhibit the inotropic effect"}]}
{"substance": "D-K-D-D-P-P-L-V-A-A-L-T-V-A (DKDDPPLVAALTVA) [N-78-85-C]", "values": [{"measurement": "effect on calcium transient amplitudes", "setting": "[1]", "result": "abolishes the inotropic effect"}]}
{"substance": "D-K-D-D-P-P-V-A-A-L-T-V-A (DKDDPPVAALTVA; Functional peptide (Fig. 26)) [79-85]", "values": [{"measurement": "effect on calcium transient amplitudes", "setting": "[1]", "result": "abolishes the inotropic effect"}, {"measurement": "increase in the calcium transient amplitude over control cells, functional equivalence compared to S100A1ct6/11", "setting": "[1]", "result": "partial functional equivalence"}]}
{"substance": "D-K-D-D-P-P-V-L-V-A-A-L-T-V-A (DKDDPPVLVAALTVA; Functional peptide (Fig. 26)) [77-85]", "values": [{"measurement": "effect on calcium transient amplitudes", "setting": "[1]", "result": "abolishes the inotropic effect"}, {"measurement": "increase in the calcium transient amplitude over control cells, functional equivalence compared to S100A1ct6/11", "setting": "[1]", "result": "partial functional equivalence"}]}
{"substance": "D-K-D-D-P-P-V-V-L-V-A-A-L (DKDDPPVVLVAAL; Functional peptide (Fig. 26)) [76-82]", "values": [{"measurement": "increase in the calcium transient amplitude over control cells, functional equivalence compared to S100A1ct6/11", "setting": "[1]", "result": "partial functional equivalence"}]}
{"substance": "D-K-D-D-P-P-V-V-L-V-A-A-L-T (DKDDPPVVLVAALT; Functional peptide (Fig. 26)) [76-83]", "values": [{"measurement": "increase in the calcium transient amplitude over control cells, functional equivalence compared to S100A1ct6/11", "setting": "[1]", "result": "partial functional equivalence"}]}
{"substance": "D-K-D-D-P-P-V-V-L-V-A-A-L-T-V (DKDDPPVVLVAALTV; Functional peptide (Fig. 26)) [76-84]", "values": [{"measurement": "increase in the calcium transient amplitude over control cells, functional equivalence compared to S100A1ct6/11", "setting": "[1]", "result": "full functional equivalence"}]}
{"substance": "DKDDPPYVVLVAALTVA [S100A1ct6/11, D-K-D-D-P-P-Y-V-V-L-V-A-A-L-T-V-A (SEQ ID NO: 42)]", "values": [{"measurement": "EC50", "setting": "[1]", "result": "87 ± 6", "unit": "nM"}]}
{"substance": "S100A1 protein: native human S100A1 protein, 94 amino acids, SEQ ID NO: 38; recombinant, rhodamine-labeled for imaging", "values": [{"measurement": "diastolic calcium spark frequency and RyR2 activity", "setting": "RyR2", "result": "decreases"}, {"measurement": "isometric twitch force", "setting": "[2]", "result": "enhances; also recorded: equivalent biological potency to enhance isometric force"}, {"measurement": "calcium homeostasis", "setting": "[3]", "result": "does not alter"}]}
{"substance": "YVVLVAALTVACNNFFWENS (SEQ ID NO: 39) (YVVLVAALTVACNNFFWENS; amino acids 75 to 94 of human S100A1) [20-mer S100A1 C-terminal peptide, amino acids 75-94 of human S100A1, reference compound]", "values": [{"measurement": "diastolic calcium spark frequency and RyR2 activity", "setting": "RyR2", "result": "decreases"}, {"measurement": "isometric twitch force", "setting": "[2]", "result": "enhances; also recorded: equivalent biological potency to enhance isometric force"}, {"measurement": "calcium homeostasis", "setting": "[3]", "result": "does not alter"}]}
